# Laboratory results reported in patent US20220340633A1 (Adepthera LLC, priority 2016, published 2022).
# “Also recorded” adds a separate entry of the source.
# Tests used:
# CLR/RAMP1 receptor = CLR/RAMP1 receptor (Homo sapiens, UniProt O60894+Q16602); settings: for receptor specificity of antagonist: CLR/RAMP1 versus CLR/RAMP2
# Method: Using a receptor activation assay, the dose-dependent stimulatory response of peptide agonists of the present invention on a CLR/RAMP1 receptor, a CLR/RAMP2, or a CLR/RAMP3 receptor complex was determined. A cell line carrying the recombinant CLR/RAMP1, CLR/RAMP2, or a CLR/RAMP3 receptor was employed in the assay. Peptide agonist activities were tested, in duplicate, at 10 different concentrations, starting with 1.0 μM and serially diluted 3-fold, in DMSO. […] The CLR/RAMP1 cAMP, CLR/RAMP2 arrestin assays, and CLR/RAMP3 cAMP (DiscoveRx, Fremont, Calif.) were used.
# For the analysis of antagonistic activity, the synthetic analogs were pre-incubated with the cells before adding the reference ligand at its EC80.
# [1] = tested on: primary human lymphatic endothelia cells (HLEC); test: HLEC survival in medium with 0.1% FBS, MTS assay; settings: 30, 100, and 300 nM, 72 hrs
# Method: The cells were cultured for 72 hrs, and cell viability was assayed with the MTS assay (Promega).
# CLR/RAMP1 receptor, sequence (Q16602 23-461): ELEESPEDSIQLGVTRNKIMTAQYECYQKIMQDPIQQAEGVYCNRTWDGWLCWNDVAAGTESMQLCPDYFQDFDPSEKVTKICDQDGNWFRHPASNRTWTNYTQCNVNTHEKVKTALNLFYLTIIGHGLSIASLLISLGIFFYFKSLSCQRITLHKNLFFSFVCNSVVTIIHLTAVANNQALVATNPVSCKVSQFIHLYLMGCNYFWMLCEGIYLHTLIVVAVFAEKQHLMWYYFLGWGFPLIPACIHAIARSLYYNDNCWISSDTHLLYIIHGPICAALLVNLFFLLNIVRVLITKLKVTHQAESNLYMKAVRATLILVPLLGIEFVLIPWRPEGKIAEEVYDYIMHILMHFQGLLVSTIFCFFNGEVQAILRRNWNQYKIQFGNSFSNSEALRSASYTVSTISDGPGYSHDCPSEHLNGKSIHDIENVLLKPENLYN
# CLR/RAMP1 receptor, sequence (O60894 27-148): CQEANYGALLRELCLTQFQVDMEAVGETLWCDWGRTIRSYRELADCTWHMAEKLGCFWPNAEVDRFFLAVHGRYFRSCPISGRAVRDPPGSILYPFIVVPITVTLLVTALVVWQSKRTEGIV
Compound,HLEC survival (in words) [1],other results
CC[C@H](C)[C@H](NC(=O)[C@H](CCC(N)=O)NC(=O)[C@H](Cc1c[nH]cn1)NC(=O)[C@H](C)NC(=O)[C@H](CC(C)C)NC(=O)[C@H](CCCCN)NC(=O)[C@H](CCC(N)=O)NC(=O)[C@@H](NC(=O)[C@@H](NC(C)=O)[C@@H](C)O)C(C)C)C(=O)N[C@@H](Cc1ccc(O)cc1)C(=O)N[C@@H](CCC(N)=O)C(=O)N[C@@H](Cc1ccccc1)C(=O)N[C@H](C(=O)N[C@@H](CC(=O)O)C(=O)N[C@@H](CCCCN)C(=O)N[C@@H](CC(=O)O)C(=O)N[C@@H](CCCCN)C(=O)N[C@@H](CC(=O)O)C(=O)N[C@@H](CC(N)=O)C(=O)N[C@@H](CO)C(=O)N[C@@H](C)C(=O)N1CCC[C@H]1C(=O)N[C@H](C(=O)N[C@@H](CC(=O)O)C(=O)N1CCC[C@H]1C(=O)N[C@@H](CO)C(=O)N[C@@H](CO)C(=O)N1CCC[C@H]1C(=O)N[C@@H](Cc1c[nH]cn1)C(=O)N[C@@H](CO)C(=O)N[C@@H](Cc1ccc(O)cc1)C(N)=O)C(C)C)[C@@H](C)O [SEQ ID NO: 76],,antagonistic activity toward CLR/RAMP1 and/or CLR/RAMP2 receptor signaling (in words) (CLR/RAMP1 receptor; statement covers CGRP-stimulated CLR/RAMP1 and ADM-stimulated CLR/RAMP2): mildly improved antagonistic activity
CCCCCCCCCCCCCCCC(=O)N[C@@H](CCCCN)C(=O)N[C@H](C(=O)N[C@@H](CCC(N)=O)C(=O)N[C@@H](CC(N)=O)C(=O)N[C@@H](CC(C)C)C(=O)N[C@@H](CO)C(=O)N[C@@H](Cc1c[nH]cn1)C(=O)N[C@@H](CCCNC(=N)N)C(=O)N[C@@H](CC(C)C)C(=O)N[C@@H](Cc1c[nH]c2ccccc12)C(=O)N[C@@H](CCC(N)=O)C(=O)N[C@@H](CC(C)C)C(=O)N[C@@H](CCSC)C(=O)NCC(=O)N1CCC[C@H]1C(=O)N[C@@H](C)C(=O)NCC(=O)N[C@@H](CO)C(=O)N[C@@H](C)C(=O)N1CCC[C@H]1C(=O)N[C@H](C(=O)N[C@@H](CC(=O)O)C(=O)N1CCC[C@H]1C(=O)N[C@@H](CO)C(=O)N[C@@H](CO)C(=O)N1CCC[C@H]1C(=O)N[C@@H](Cc1c[nH]cn1)C(=O)N[C@@H](CO)C(=O)N[C@@H](Cc1ccc(O)cc1)C(N)=O)C(C)C)C(C)C [SEQ ID NO: 120],,receptor specificity of antagonist (CLR/RAMP1 receptor): CLR/RAMP1-specific
CCCCCCCCCCCCCCCC(=O)N[C@@H](CCCCN)C(=O)NCC(=O)N[C@H]1CSSC[C@@H](C(=O)N[C@H](C(=O)N[C@H](C(=O)N[C@@H](CCC(N)=O)C(=O)N[C@@H](CCCCN)C(=O)N[C@@H](CC(C)C)C(=O)N[C@@H](C)C(=O)N[C@@H](Cc2c[nH]cn2)C(=O)N[C@@H](CCC(N)=O)C(=O)N[C@H](C(=O)N[C@@H](Cc2ccc(O)cc2)C(=O)N[C@@H](CCC(N)=O)C(=O)N[C@@H](Cc2ccccc2)C(=O)N[C@H](C(=O)N[C@@H](CC(=O)O)C(=O)N[C@@H](CCCCN)C(=O)N[C@@H](CC(=O)O)C(=O)N[C@@H](CCCCN)C(=O)N[C@@H](CC(=O)O)C(=O)N[C@@H](CC(N)=O)C(=O)N[C@@H](CO)C(=O)N[C@@H](C)C(=O)N2CCC[C@H]2C(=O)N[C@H](C(=O)N[C@@H](CC(=O)O)C(=O)N2CCC[C@H]2C(=O)N[C@@H](CO)C(=O)N[C@@H](CO)C(=O)N2CCC[C@H]2C(=O)N[C@@H](Cc2c[nH]cn2)C(=O)N[C@@H](CO)C(=O)N[C@@H](Cc2ccc(O)cc2)C(N)=O)C(C)C)[C@@H](C)O)[C@@H](C)CC)C(C)C)[C@@H](C)O)NC(=O)[C@H]([C@@H](C)O)NC(=O)CNC(=O)[C@H](Cc2ccccc2)NC(=O)[C@H](CCCNC(=N)N)NC1=O [SEQ ID NO: 30],dose-dependently stimulated; also recorded: significantly promote,
CC[C@H](C)[C@H](NC(=O)[C@H](CCC(N)=O)NC(=O)[C@H](Cc1c[nH]cn1)NC(=O)[C@H](C)NC(=O)[C@H](CC(C)C)NC(=O)[C@H](CCCCN)NC(=O)[C@H](CCC(N)=O)NC(=O)[C@@H](NC(=O)[C@@H](NC(=O)[C@@H]1CSSC[C@H](NC(=O)CNC(=O)[C@H](CCCCN)NC(C)=O)C(=O)N[C@@H](CCCNC(=N)N)C(=O)N[C@@H](Cc2ccccc2)C(=O)NCC(=O)N[C@@H]([C@@H](C)O)C(=O)N1)[C@@H](C)O)C(C)C)C(=O)N[C@@H](Cc1ccc(O)cc1)C(=O)N[C@@H](CCC(N)=O)C(=O)N[C@@H](Cc1ccccc1)C(=O)N[C@H](C(=O)N[C@@H](CC(=O)O)C(=O)N[C@@H](CCCCN)C(=O)N[C@@H](CC(=O)O)C(=O)N[C@@H](CCCCN)C(=O)N[C@@H](CC(=O)O)C(=O)N[C@@H](CC(N)=O)C(=O)N[C@@H](CO)C(=O)N[C@@H](C)C(=O)N1CCC[C@H]1C(=O)N[C@H](C(=O)N[C@@H](CC(=O)O)C(=O)N1CCC[C@H]1C(=O)N[C@@H](CO)C(=O)N[C@@H](CO)C(=O)N1CCC[C@H]1C(=O)N[C@@H](Cc1c[nH]cn1)C(=O)N[C@@H](CO)C(=O)N[C@@H](Cc1ccc(O)cc1)C(N)=O)C(C)C)[C@@H](C)O [SEQ ID NO: 59],minimal effects; also recorded: negligible effects,
CCCCCCCCCCCCCCCC(=O)N[C@@H](CCCCN)C(=O)N[C@H](C(=O)N[C@@H](CCCCN)C(=O)N[C@@H](CCCCN)C(=O)N[C@H](C(=O)N[C@@H](CC(C)C)C(=O)N[C@@H](CCCNC(=N)N)C(=O)N[C@H](C(=O)NCC(=O)N[C@H]1CSSC[C@@H](C(=O)N[C@H](C(=O)N[C@H](C(=O)N[C@@H](CCC(N)=O)C(=O)N[C@@H](CCCCN)C(=O)N[C@@H](CC(C)C)C(=O)N[C@@H](C)C(=O)N[C@@H](Cc2c[nH]cn2)C(=O)N[C@@H](CCC(N)=O)C(=O)N[C@H](C(=O)N[C@@H](Cc2ccc(O)cc2)C(=O)N[C@@H](CCC(N)=O)C(=O)N[C@@H](Cc2ccccc2)C(=O)N[C@H](C(=O)N[C@@H](CC(=O)O)C(=O)N[C@@H](CCCCN)C(=O)N[C@@H](CC(=O)O)C(=O)N[C@@H](CCCCN)C(=O)N[C@@H](CC(=O)O)C(=O)N[C@@H](CC(N)=O)C(=O)N[C@@H](CO)C(=O)N[C@@H](C)C(=O)N2CCC[C@H]2C(=O)N[C@H](C(=O)N[C@@H](CC(=O)O)C(=O)N2CCC[C@H]2C(=O)N[C@@H](CO)C(=O)N[C@@H](CO)C(=O)N2CCC[C@H]2C(=O)N[C@@H](Cc2c[nH]cn2)C(=O)N[C@@H](CO)C(=O)N[C@@H](Cc2ccc(O)cc2)C(N)=O)C(C)C)[C@@H](C)O)[C@@H](C)CC)C(C)C)[C@@H](C)O)NC(=O)[C@H]([C@@H](C)O)NC(=O)CNC(=O)[C@H](Cc2ccccc2)NC(=O)[C@H](CCCNC(=N)N)NC1=O)[C@@H](C)O)[C@@H](C)O)[C@@H](C)O [SEQ ID NO: 38],dose-dependently stimulated; also recorded: significantly promote,
CCCCCCCCCCCCCCCC(=O)NCCCC[C@H](NC(C)=O)C(=O)NCC(=O)N[C@H]1CSSC[C@@H](C(=O)N[C@H](C(=O)N[C@H](C(=O)N[C@@H](CCC(N)=O)C(=O)N[C@@H](CCCCN)C(=O)N[C@@H](CC(C)C)C(=O)N[C@@H](C)C(=O)N[C@@H](Cc2c[nH]cn2)C(=O)N[C@@H](CCC(N)=O)C(=O)N[C@H](C(=O)N[C@@H](Cc2ccc(O)cc2)C(=O)N[C@@H](CCC(N)=O)C(=O)N[C@@H](Cc2ccccc2)C(=O)N[C@H](C(=O)N2CCC[C@H]2C(=O)N[C@@H](C)C(=O)NCC(=O)N[C@@H](CCCNC(=N)N)C(=O)N[C@@H](CCC(N)=O)C(=O)N[C@@H](CC(=O)O)C(=O)N[C@@H](CO)C(=O)N[C@@H](C)C(=O)N2CCC[C@H]2C(=O)N[C@H](C(=O)N[C@@H](CC(=O)O)C(=O)N2CCC[C@H]2C(=O)N[C@@H](CO)C(=O)N[C@@H](CO)C(=O)N2CCC[C@H]2C(=O)N[C@@H](Cc2c[nH]cn2)C(=O)N[C@@H](CO)C(=O)N[C@@H](Cc2ccc(O)cc2)C(N)=O)C(C)C)[C@@H](C)O)[C@@H](C)CC)C(C)C)[C@@H](C)O)NC(=O)[C@H]([C@@H](C)O)NC(=O)CNC(=O)[C@H](Cc2ccccc2)NC(=O)[C@H](CCCNC(=N)N)NC1=O [SEQ ID NO: 33],dose-dependently stimulated; also recorded: significantly promote,
CCCCCCCCCCCCCCCC(=O)N[C@@H](CCCCN)C(=O)N[C@H](C(=O)N[C@@H](CCCCN)C(=O)N[C@@H](CCCCN)C(=O)N[C@H](C(=O)N[C@@H](CC(C)C)C(=O)N[C@@H](CCCNC(=N)N)C(=O)N[C@H](C(=O)NCC(=O)N[C@H]1CSSC[C@@H](C(=O)N[C@H](C(=O)N[C@H](C(=O)N[C@@H](CCC(N)=O)C(=O)N[C@@H](CCCCN)C(=O)N[C@@H](CC(C)C)C(=O)N[C@@H](C)C(=O)N[C@@H](Cc2c[nH]cn2)C(=O)N[C@@H](CCC(N)=O)C(=O)N[C@H](C(=O)N[C@@H](Cc2ccc(O)cc2)C(=O)N[C@@H](CCC(N)=O)C(=O)N[C@@H](Cc2ccccc2)C(=O)N[C@H](C(=O)N[C@@H](CC(=O)O)C(=O)N[C@@H](CCCCN)C(=O)N[C@@H](CC(=O)O)C(=O)N[C@@H](CCCCN)C(=O)N[C@@H](CC(=O)O)C(=O)N[C@@H](CC(N)=O)C(=O)N[C@H](C(=O)N[C@@H](C)C(=O)N2CCC[C@H]2C(=O)N[C@H](C(=O)N[C@@H](CC(=O)O)C(=O)N2CCC[C@H]2C(=O)N[C@@H](CO)C(=O)N[C@@H](CO)C(=O)N2CCC[C@H]2C(=O)N[C@@H](Cc2c[nH]cn2)C(=O)N[C@@H](CO)C(=O)N[C@@H](Cc2ccc(O)cc2)C(N)=O)C(C)C)C(C)C)[C@@H](C)O)[C@@H](C)CC)C(C)C)[C@@H](C)O)NC(=O)[C@H]([C@@H](C)O)NC(=O)CNC(=O)[C@H](Cc2ccccc2)NC(=O)[C@H](CCCNC(=N)N)NC1=O)[C@@H](C)O)[C@@H](C)O)[C@@H](C)O [SEQ ID NO: 40],dose-dependently stimulated; also recorded: significantly promote,
CCCCCCCCCCCCCCCC(=O)N[C@@H](CCCCN)C(=O)N[C@H](C(=O)N[C@@H](CCC(N)=O)C(=O)N[C@@H](CCCCN)C(=O)N[C@@H](CC(C)C)C(=O)N[C@@H](C)C(=O)N[C@@H](Cc1c[nH]cn1)C(=O)N[C@@H](CCC(N)=O)C(=O)N[C@H](C(=O)N[C@@H](Cc1ccc(O)cc1)C(=O)N[C@@H](CCC(N)=O)C(=O)N[C@@H](Cc1ccccc1)C(=O)N[C@H](C(=O)N[C@@H](CC(=O)O)C(=O)N[C@@H](CCCCN)C(=O)N[C@@H](CO)C(=O)N[C@@H](C)C(=O)N1CCC[C@H]1C(=O)N[C@H](C(=O)N[C@@H](CC(=O)O)C(=O)N1CCC[C@H]1C(=O)N[C@@H](CO)C(=O)N[C@@H](CO)C(=O)N1CCC[C@H]1C(=O)N[C@@H](Cc1c[nH]cn1)C(=O)N[C@@H](CO)C(=O)N[C@@H](Cc1ccc(O)cc1)C(N)=O)C(C)C)[C@@H](C)O)[C@@H](C)CC)C(C)C [SEQ ID NO: 125],,receptor specificity of antagonist (CLR/RAMP1 receptor): pan-specific
